# Laboratory results as given in article PMC10892409, “Exploring Ocimum basilicum’s Secondary Metabolites: Inhibition and Molecular Docking against Rhynchophorus ferrugineus for Optimal Action” (Plants, 2024).
# Several values for one entry are separate records, joined by “and”; a condition that tells them apart may be missing. Equal entries are not always repeated.
# Columns and labels:
# AChE [1] = experiment: In vitro AChE inhibition, larval homogenate (Ellman); type: biochemical, Rhynchophorus ferrugineus; conditions: fourth-instar larvae preparation
# Description: (§1) The R. ferrugineus were homogenized larvae in a buffer (sodium phosphate, 40 mM, and pH 7.4); then, sodium chloride (10 mM dissolved in 1% (w/v) triton X-100) was added. During centrifugation (Sigma 3–30 KS), the homogenate was chilled to 4 °C and spun at a speed of 5000 rpm (20 min). The supernatant was either immediately put into action for an enzymatic test or frozen and kept at […] for later use. Each test was repeated three times. The protein content was determined using the same protocol employed by Lowry with modification using protein extract (100 µL) combined with an alkaline copper solution and a Folin–Ciocalteu phenol reagent (2 mL and 200 µL, respectively). The intensity of the resulting blue hue was evaluated during 30 min of incubation at 25 °C. Using an ELISA plate reader and a BSA standard curve, we could calculate the protein concentration by analyzing the absorbance at 600 nm (Multiskan SkyHigh Microplate Spectrophotometer, Thermo Fisher Scientific, Waltham, MA, USA).
# (§2) The enzyme AChE was assessed using a substrate of acetylthiocholine iodide and evaluated using 5,5′-dithiobis [2-nitrbenzoic acid] (DTNB), according to [94]. Each well contained a sodium phosphate buffer (140 µL) (pH: 8.0; 100 mM), DTNB (10 µL), extract (20 µL)/components at 1, 10, 50, 100, and 1000 µg/mL in DMSO and underwent 15 min of incubation at 25 °C. Acetylthiocholine (ATCh) was added to start the reaction (10 µL). The ATCh enzymatic hydrolysis produced a 5-thio-2-nitrobenzoate anion as a color (yellow) that was detected by measuring its wavelength, i.e., 412 nm, thereby allowing the researchers to track the rate of ATCh hydrolysis (15 min). Each response was performed three times on a microplate and examined using an ELISA plate reader to determine the 412 nm absorbance of the combination (Multiskan SkyHigh Microplate Spectrophotometer). The AChE-specific activity was measured as OD412/mg protein.h. based on observing the effect of raising the quantities of all of these compounds during the tests on the inhibition results, and the inhibitory concentration (IC50) was calculated. Then, a computer algorithm was used to determine the IC50 values (Version 9.01 of GraphPad Prism by Inc., 2020, San Diego, CA, USA).
# [2] = tested on: fourth-instar larvae of R. ferrugineus; experiment: Topical application (contact) to fourth-instar larvae (probit LD50); type: in vivo, Rhynchophorus ferrugineus; conditions: after 1 day of treatment, 95% confidence limits in brackets
# Description: (§3) Over the course of 40 days, an O. basilicum cell suspension was cultivated in this investigation, and then the extract was obtained. […] Long segments of sugarcane stem were employed in the insect breeding lab at King Faisal University’s Research and Training Center to raise adult R. ferrugineus larvae. For this experiment, we used a topical application technique with larvae stored at 4 °C for five minutes to test the extract’s activity. Using a hand-operated micro-applicator (Burkard Manufacturing Co., Ltd., Hertfordshire, UK, collected using a […] micro-syringe), extracts at escalating ratios (10 µL) were injected into the dorsal surface of the larvae (Ito Corp.; MS-N50, Shizuoka, Japan). Five larvae per box in a series of three replicates were fed on sugarcane stem pieces measuring 10 cm in length. The LD50 was calculated by measuring the percentage of dead larvae at 24, 48, 72, and 96 h following a topical application. The antifeedant impact was determined in adults by giving them 10 cm sugarcane stem segments cut in half longitudinally. Long strips of sugarcane stem (32 cm^2) were immersed in the previous serial extract and compound concentration (10 mL) for ten seconds before they were dried in ambient air using a plastic box. Each box included a new pair of larvae (a male and a female). Ten sets of each treatment were performed. Data on how well the subjects ate were evaluated at 24, 48, 72, and 96 h.
# (§4) The tissue culture parameters were calculated quantitatively from three independent sets of samples, and the mean SD was used to describe the findings. Toxicity parameters were determined quantitatively using a 10-replicate sample, and means and standard deviations were used to present the data. The median dosage obtained from a dose–response regression was used to calculate the LC50 value. By analyzing the comparative growth rate vs. the crude extract logarithm using least squares regression, the range of LC50 was calculated with 95% confidence. A simple variance study was performed on the increased weight and enzymatic activity data (ANOVA). The distinction between the means was accomplished using the Student–Newman–Keuls (SNK) test. Additionally, SPSS version 25 was used to find p < 0.05 significant deviations from the mean.
# AChE [3] = experiment: In vivo AChE inhibition in treated fourth-instar larvae; set-up: species or system Rhynchophorus ferrugineus; conditions: fourth-instar larvae treated 24 h
# Description: as §2
# (§5) Each enzyme’s in vivo impact was measured after treating larvae with an extract or pure chemicals. An inhibitor-free test combination served as a negative control. We determined the absorbance of the enzymes throughout a spectrum of wavelengths using a rapid reader for ELISA plates (Multiskan SkyHigh Microplate Spectrophotometer). Extracts and pure chemicals were used to treat R. ferrugineus larvae at previous serial concentrations, and their AChE, ACP, ALP, and GABA-T activity was tested in vivo using the methods outlined above. Larvae spent a day on leaf disks treated with chemicals or extract.
# ALPs [4] = experiment: In vitro ALP inhibition, larval homogenate; type: biochemical, Rhynchophorus ferrugineus; conditions: for IC50 ALPs in vitro: fourth-instar larvae preparation
# Description: as §1
# (§6) Activities of ACPs and ALPs were evaluated using a modified version of the Asakura technique. The ACP test required incubating 100 μL of crude enzyme in a buffer of 650 μL of sodium acetate (pH: 5.0; 50 mM with ACPs) or 250 μL of Tris–HCl (at 50 mM; pH: 8.0 with ALPs) and p-nitrophenyl phosphate (5.5 mM). For 30 min; the various mixes were kept at 37 °C for incubation. Thereafter, 500 μL of NaOH (0.5 N) stopped the reaction. Using an ELISA plate reader, we determined the mixture’s 415 nm absorbance value (Multiskan SkyHigh Microplate Spectrophotometer). The ACP- and ALP-specific activity was estimated as OD 415/mg protein·h.
# ACPs [5] = experiment: In vitro ACP inhibition, larval homogenate; type: biochemical, Rhynchophorus ferrugineus; conditions: fourth-instar larvae preparation
# Description: as §1, §6
# ACPs [6] = experiment: In vivo ACP inhibition in treated fourth-instar larvae; set-up: species or system Rhynchophorus ferrugineus; conditions: fourth-instar larvae treated 24 h
# Description: as §6, §5
# R. ferrugineus adults = experiment: Antifeedant/insecticidal test on adults with treated sugarcane stem (probit LC50); type: in vivo, Rhynchophorus ferrugineus; conditions: Rhynchophorus ferrugineus, 24 h, after 1 day of treatment, 95% confidence limits in brackets, read-out: LC50
# Description: as §3, §4
# ALPs [7] = experiment: In vivo ALP inhibition in treated fourth-instar larvae; set-up: species or system Rhynchophorus ferrugineus; conditions: fourth-instar larvae treated 24 h
# Description: as §6, §5
# [8] = listed as quercetin-3-O-rutinoside
structure (smiles),measurement,setting,value
C[C@@H]1O[C@@H](OC[C@H]2O[C@@H](Oc3c(-c4ccc(O)c(O)c4)oc4cc(O)cc(O)c4c3=O)[C@H](O)[C@@H](O)[C@@H]2O)[C@H](O)[C@H](O)[C@H]1O [Quercetin-3-O-rutinoside],IC50 AChE in vitro,AChE [1],98 ± 0.87 µg/mL
same,IC50 AChE in vitro,AChE [1]; [8],98.4 µg/mL
same,LD50,[2],16.2 (15.3–17.2) µg/Larvae
same,LD50,[2]; [8],16.2 µg/Larvae
same,IC50 AChE in vivo,AChE [3],348 ± 0.87 µg/mL
same,IC50 AChE in vivo,AChE [3]; [8],347.6 µg/mL
same,IC50 ALP in vitro,ALPs [4],102 µg/mL
same,IC50 ALPs in vitro,ALPs [4]; [8],< 200 µg/mL
same,IC50 ACPs in vitro,ACPs [5]; [8],104.8 µg/mL
same,IC50 ACPs in vivo,ACPs [6]; [8],298.4 µg/mL
same,LC50,R. ferrugineus adults,1170 µg/mL
O=C(/C=C/c1ccc(O)c(O)c1)O/C=C\c1ccc(O)c(O)c1 [Nepetoidin B],IC50 AChE in vitro,AChE [1],147 ± 1.38 µg/mL
same,IC50 AChE in vitro,AChE [1]; listed as nepetoidin B,147.2 µg/mL
same,LD50,[2],11.5 (10.9–12.1) µg/Larvae
same,LD50,[2]; listed as nepetoidin B,11.5 µg/Larvae
same,IC50 ALPs in vivo,ALPs [7]; listed as nepetoidin B,307.9 µg/mL
same,IC50 AChE in vivo,AChE [3],282 ± 1.38 µg/mL
same,IC50 AChE in vivo,AChE [3]; listed as nepetoidin B,281.7 µg/mL
same,IC50 ALP in vitro,ALPs [4],166 µg/mL
same,IC50 ALPs in vitro,ALPs [4]; listed as nepetoidin B,< 200 µg/mL
same,IC50 ACPs in vitro,ACPs [5]; listed as nepetoidin B,154.2 µg/mL
same,IC50 ACPs in vivo,ACPs [6]; listed as nepetoidin B,< 330 µg/mL and 294.3 µg/mL
same,LC50,R. ferrugineus adults,1270 µg/mL
O=C(/C=C/c1ccc(O)c(O)c1)O[C@@H](C(=O)O)[C@@H](O)C(=O)O [Caftaric acid],IC50 AChE in vitro,AChE [1],156 ± 1.49 µg/mL
same,IC50 AChE in vitro,AChE [1]; listed as caftaric acid,156.4 µg/mL
same,LD50,[2],18.79 (17.82–19.93) µg/Larvae
same,LD50,[2]; listed as caftaric acid,18.79 µg/Larvae
same,IC50 AChE in vivo,AChE [3],429 ± 1.49 µg/mL
same,IC50 AChE in vivo,AChE [3]; listed as caftaric acid,429.2 µg/mL
same,IC50 ALP in vitro,ALPs [4],158 µg/mL
same,IC50 ALPs in vitro,ALPs [4]; listed as caftaric acid,< 200 µg/mL
same,LC50,R. ferrugineus adults,1490 µg/mL
COc1cc(/C=C/C(=O)O[C@@H](C(=O)O)[C@@H](O)C(=O)O)ccc1O [Fertaric acid],IC50 AChE in vitro,AChE [1],124 ± 1.18 µg/mL
same,IC50 AChE in vitro,AChE [1]; listed as fertaric acid,123.6 µg/mL
same,LD50,[2],19.46 (18.23–20.76) µg/Larvae
same,LD50,[2]; listed as fertaric acid,19.46 µg/Larvae
same,IC50 ALPs in vivo,ALPs [7]; listed as fertaric acid,436.8 µg/mL
same,IC50 AChE in vivo,AChE [3],385 ± 1.18 µg/mL
same,IC50 AChE in vivo,AChE [3]; listed as fertaric acid,384.7 µg/mL
same,IC50 ALP in vitro,ALPs [4],137 µg/mL
same,IC50 ALPs in vitro,ALPs [4]; listed as fertaric acid,< 200 µg/mL
same,IC50 ACPs in vitro,ACPs [5]; listed as fertaric acid,133.5 µg/mL
same,IC50 ACPs in vivo,ACPs [6]; listed as fertaric acid,349.4 µg/mL
same,LC50,R. ferrugineus adults,1530 µg/mL
